Measurements published in article PMC9917816, “STS1 and STS2 Phosphatase Inhibitor Baicalein Enhances the Expansion of Hematopoietic and Progenitor Stem Cells and Alleviates 5-Fluorouracil-Induced Myelosuppression” (International Journal of Molecular Sciences, 2023).

Assays:
[1] = molecular target: T1, STS2-HP (STS2 histidine phosphatase domain) (Homo sapiens, UniProt P57075); assay: pNPP phosphatase inhibition assay, absorbance at […] nm; format: biochemical; details: read-out: % inhibition at 10 μg/mL
T1 construct: gene UBASH3A
T1 sequence (P57075 385-661 limits assumed): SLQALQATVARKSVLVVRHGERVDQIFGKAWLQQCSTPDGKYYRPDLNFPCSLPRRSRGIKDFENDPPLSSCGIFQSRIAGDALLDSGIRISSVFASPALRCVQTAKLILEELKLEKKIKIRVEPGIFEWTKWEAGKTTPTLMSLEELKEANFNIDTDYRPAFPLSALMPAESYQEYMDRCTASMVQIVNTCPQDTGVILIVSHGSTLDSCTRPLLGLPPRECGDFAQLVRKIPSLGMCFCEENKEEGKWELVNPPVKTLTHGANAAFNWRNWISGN

[2] = molecular target: T2, STS1-HP (STS1 histidine phosphatase domain) (Homo sapiens, UniProt Q8TF42); assay: capillary electrophoresis, migration time shift; format: binding; details: 20 mM PBS, pH 7.0, 20 kV, UV 230 nm
T2 construct: gene UBASH3B
T2 sequence (Q8TF42 380-649 limits assumed): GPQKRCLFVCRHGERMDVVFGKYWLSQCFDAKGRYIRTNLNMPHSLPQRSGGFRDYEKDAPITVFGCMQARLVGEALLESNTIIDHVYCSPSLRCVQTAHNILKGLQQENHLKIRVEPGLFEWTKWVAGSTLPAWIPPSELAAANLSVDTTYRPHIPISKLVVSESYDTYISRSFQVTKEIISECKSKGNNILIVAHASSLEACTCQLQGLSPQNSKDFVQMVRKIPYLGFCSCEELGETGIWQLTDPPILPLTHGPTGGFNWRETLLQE

[3] = molecular target: T2, STS1-HP (STS1 histidine phosphatase domain); assay: pNPP phosphatase inhibition assay, absorbance at […] nm; format: biochemical; details: pNPP substrate, pH 7.2, 25 °C, 10 min; name misprinted as baicalin in b9

SMILES: O=c1cc(-c2ccccc2)oc2cc(O)c(O)c(O)c12 [baicalein]
- inhibition at 10 µg/mL [1]: 13.8%
- capillary electrophoresis, migration time shift [2]: migration times of STS1 and STS2 proteins were markedly delayed when BC was added
- % inhibition at 10 μg/mL [3]: (BC) could significantly inhibit the phosphatase activity of STS1 in vitro
